# Source: patent publication US7812047B2, “4-imidazolines” (Hoffman-La Roche Inc., priority 2007, dated 2010)
# Target: T1, TAAR1 (Mus musculus, UniProt Q923Y8)
# T1 construct: expressed in transfected cells; host or cells: HEK293 cells (ATCC CRL-1573), stably transfected with pIRESneo2 expression plasmid; membranes prepared
# Assay: Radioligand binding assay on membranes of HEK293 cells stably expressing TAAR1
# Conditions: mouse TAAR1; radioligand [3H]-rac-2-(1,2,3,4-tetrahydro-1-naphthyl)-2-imidazoline, 4° C., 30 min
# Procedure: For the construction of expression plasmids the coding sequences of human, rat and mouse TAAR 1 were amplified from genomic DNA essentially as described by Lindemann et al.. The Expand High Fidelity PCR System (Roche Diagnostics) was used with 1.5 mM Mg^2+ and purified PCR products were cloned into pCR2.1-TOPO cloning vector (Invitrogen) following the instructions of the manufacturer. PCR products were subcloned into the pIRESneo2 vector (BD Clontech, Palo Alto, Calif.), and expression vectors were sequence verified before introduction in cell lines.
# HEK293 cells (ATCC # C.RL-1573) were cultured essentially as described Lindemann et al. (2005). For the generation of stably transfected cell lines HEK293 cells were transfected with the pIRESneo2 expression plasmids containing the TAAR coding sequences (described above) with Lipofectamine 2000 (Invitrogen) according to the instructions of the manufacturer, and 24 hrs post transfection the culture medium was supplemented with 1 mg/ml G418 (Sigma, Buchs, Switzerland). After a culture period of about 10 d clones were isolated, expanded and tested for responsiveness to trace amines (all compounds purchased from Sigma) with the cAMP Biotrak Enzyme immunoassay (EIA) System (Amersham) following the non-acetylation EIA procedure provided by the manufacturer.
# Cells at confluence were rinsed with ice-cold phosphate buffered saline without Ca^2+ and Mg^2+ containing 10 mM EDTA and pelleted by centrifugation at 1000 rpm for 5 min at 4° C. The pellet was then washed twice with ice-cold phosphate buffered saline and cell pellet was frozen immediately by immersion in liquid nitrogen and stored until use at −80° C. Cell pellet was then suspended in 20 ml HEPES-NaOH (20 mM), pH 7.4 containing 10 mM EDTA, and homogenized with a Polytron (PT 3000, Kinematica) at 10,000 rpm for 10 s. The homogenate was centrifuged at 48,000×g for 30 min at 4° C. and the pellet resuspended in 20 ml HEPES-NaOH (20 mM), pH 7.4 containing 0.1 mM EDTA (buffer A), and homogenized with a Polytron at 10,000 rpm for 10 s. The homogenate was then centrifuged at 48,000×g for 30 min at 4° C. and the pellet resuspended in 20 ml buffer A, and homogenized with a Polytron at 10,000 rpm for 10 s. Protein concentration was determined by the method of Pierce (Rockford, Ill.). The homogenate was then centrifuged at 48,000×g for 10 min at 4° C., resuspended in HEPES-NaOH (20 mM), pH 7.0 including MgCl2 (10 mM) and […] homogenized with a Polytron at 10,000 rpm for 10 s.
# Binding assay was performed at 4° C. in a final volume of 1 ml, and with an incubation time of 30 min. The radioligand [^3H]-rac-2-(1,2,3,4-tetrahydro-1-naphthyl)-2-imidazoline was used at a concentration equal to the calculated Kd value of 60 nM to give a bound at around 0.1% of the total added radioligand concentration, and a specific binding which represented approximately 70-80% of the total binding. Non-specific binding was defined as the amount of [^3H]-rac-2-(1,2,3,4-tetrahydro-1-naphthyl)-2-imidazoline bound in the presence of the appropriate unlabelled ligand (10 μM). Competing ligands were tested in a wide range of concentrations […]. […] Each experiment was performed in duplicate. All incubations were terminated by rapid filtration through UniFilter-96 plates (Packard Instrument Company) and glass filter GF/C, pre-soaked for at least 2 h in polyethylenimine 0.3%, and using a Filtermate 96 Cell Harvester (Packard Instrument Company). The tubes and filters were then washed 3 times with 1 ml aliquots of cold buffer B. Filters were not dried and soaked in Ultima gold (45 μl/well, Packard Instrument Company) and bound radioactivity was counted by a TopCount Microplate Scintillation Counter (Packard Instrument Company).
# T1 sequence (Q923Y8 whole entry): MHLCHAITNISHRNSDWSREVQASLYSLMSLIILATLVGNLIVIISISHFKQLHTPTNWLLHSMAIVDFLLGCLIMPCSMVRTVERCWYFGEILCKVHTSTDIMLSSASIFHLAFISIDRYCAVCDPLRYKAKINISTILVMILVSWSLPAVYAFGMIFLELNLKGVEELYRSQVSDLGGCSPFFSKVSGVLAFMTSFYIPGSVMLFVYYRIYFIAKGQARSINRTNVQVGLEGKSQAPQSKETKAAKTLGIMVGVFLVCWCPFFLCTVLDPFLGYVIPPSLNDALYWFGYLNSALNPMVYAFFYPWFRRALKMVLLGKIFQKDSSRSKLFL
row,SMILES,Ki
1,"CCc1cccc2cccc(CC3CNC=N3)c12 (racemic) [Example 6, (RS)-4-(8-Ethyl-naphthalen-1-ylmethyl)-4,5-dihydro-1H-imidazole or tautomer]",0.078 µM
2,"C1=NC(CCc2ccccc2)CN1 (racemic) [Example 3, rac-4-Phenethyl-4,5-dihydro-1H-imidazole or tautomer]",0.06 µM
3,"Clc1ccc(CCC2CNC=N2)cc1 (racemic) [Example 10, rac-4-[2-(4-Chloro-phenyl)-ethyl]-4,5-dihydro-1H-imidazole or tautomer]",0.327 µM
4,"CN(CC1CN=CN1)c1ccccc1 (stereo not shown) [Example 7, (4,5-Dihydro-3H-imidazol-4-ylmethyl)-methyl-phenyl-amine or tautomer]",0.182 µM
5,"CCN(CC1CN=CN1)c1ccccc1 (racemic) [Example 4, rac-(4,5-Dihydro-3H-imidazol-4-ylmethyl)-ethyl-phenyl-amine or tautomer]",0.253 µM
6,"C1=NC(Cc2cccc3ccccc23)CN1 (racemic) [Example 2, rac-4-Naphthalen-1-ylmethyl-4,5-dihydro-1H-imidazole or tautomer]",0.005 µM

# Same assay, conditions: radioligand binding assay; species not stated; read-out: calculated Kd value of the radioligand
row,SMILES,Kd
1,"c1ccc2c(c1)CCCC2C1=NCCN1 (racemic) [[^3H]-rac-2-(1,2,3,4-tetrahydro-1-naphthyl)-2-imidazoline, reference compound]",60 nM
